Tested on: individuals with essential tremor
Assay: Phase 2 placebo-controlled study, Compound 1 60 mg once daily for 28 days (reducible to 45 mg or 30 mg): TETRAS performance subscale part 4 upper limb tremor score and tremor amplitude
Assay type: in vivo, human
Settings: for % CFB in Tremor Amplitude: calculated from TETRAS part 4 ratings
Experimental: 4) Upper limb tremor: Tremor is assessed during three maneuvers: forward horizontal reach posture, lateral “wing beating” posture and finger-nose-finger testing. Each upper limb is assessed and scored individually. The forward horizontal reach posture is held for 5 seconds. The lateral wing beating posture is held for 20 seconds. The finger-nose-finger movement is executed three times. Amplitude assessment should be estimated using the maximally displaced point of the hand at the point of greatest displacement along any single plane. For example, the amplitude of a pure supination-pronation tremor, pivoting around the wrist would be assessed at either the thumb or fifth digit.
For all three hand tremor ratings: 0=no tremor. 1=tremor is barely visible. 1.5=tremor is visible, but less than 1 cm. 2=tremor is 1-<3 cm amplitude. 2.5=tremor is 3-<5 cm amplitude. 3=tremor is 5-<10 cm amplitude. 3.5=tremor is 10-<20 cm amplitude. 4=tremor is >20 cm amplitude.
As used herein, “The Essential Tremor Rating Assessment Scale (TETRAS) performance subscale part 4 upper limb tremor total score” refers to the “upper limb tremor” under metric or characteristic 4 of the TETRAS performance subscale set forth above. Each of the three tasks are performed on each limb to give a total of 6 tasks, wherein each task is scored 0, 1, 1.5, 2, 2.5, 3, 3.5, or 4, and each score is added to give a total score no greater than 24.
[formula] • wherein Tf is a final tremor amplitude; • Ti is an initial tremor amplitude; • Rf is a final tremor rating; • Ri is an initial tremor rating; • α is 0.05; and • N=6, for 6 tasks in TETRAS performance subscale part 4 upper limb tremor total score.
Participants were 18 to 80 years of age, inclusive, diagnosed of ET of at least 3 years duration with scores of at least 1.5 for each of the six items that comprised the combined total upper limb TETRAS (total performance subscale part 4) with the total score for the dominant upper limb (the sum of the 3 items for either the right or left upper limb, whichever is dominant) being at least 5.5, at both Screening and predose on Day 1.
Groups received either Compound 1 as orally administered tablet(s) (each tablet providing 15 mg of Compound 1) or matching placebo at 1:1 ratio. Tablets were formulated as immediate release, white to off-white, round, film-coated tablets containing 15 mg of Compound 1, filler, disintegrant, lubricant, and glidant, wherein the tablets were formed using direct compression and coated with Opadry® II white as the film coating.
Participants were randomized to receive Compound 1 60 mg or placebo once daily in the morning on a 1:1 basis. If participants reported a TEAE considered by investigator to be related to Compound 1 and not tolerable, investigator might reduce the dose of Compound 1 from 60 mg in 15 mg decrements (i.e., 60 mg, to 45 mg, to 30 mg), as medically appropriate. If intolerable TEAEs persist at the 30 mg dose, Compound 1 was permanently stopped.
This study included a Screening Period of up to 28 days, a 29-day treatment period consisting of 28 days of dosing with the end of treatment visit intended to be on Day 29 at trough, and a 14-day follow-up period relative to final dose. Study patients were not taking other medications for essential tremor during the 28-day treatment period.
The model included the change from baseline at each visit as the dependent variable, treatment, baseline TETRAS performance subscale part 4 upper limb tremor score, assessment timepoint, and timepoint-by-treatment as explanatory variables. All explanatory variables were treated as a fixed effect. The main comparison was (difference in least mean square [LSMEAN]) between Compound 1 and placebo at the 29-day timepoint.
Model-based point estimates (i.e., LSMEAN, 95% confidence intervals, and p-values) were reported where applicable. An unstructured covariance structure was used to model the within-subject errors. […]

[1] = Baseline TETRAS Upper Limb Part 4 < 12, Day 29
[2] = Baseline TETRAS Upper Limb Part 4 ≥ 12, Day 29
[3] = Baseline part 4 upper limb total score ≥ 12, Day 8
[4] = Baseline part 4 upper limb total score ≥ 12, Day 15, 5 hr postdose
[5] = Baseline part 4 upper limb total score ≥ 12, Day 15, 8 hr postdose
[6] = Baseline part 4 upper limb total score ≥ 12, Day 15, predose
[7] = Baseline part 4 upper limb total score ≥ 12, Day 22
[8] = Baseline part 4 upper limb total score ≥ 12, Day 42
[9] = Full Analysis Set, Day 15, 5 hr postdose
[10] = Full Analysis Set, Day 15, 8 hr postdose
[11] = Full Analysis Set, Day 15, predose
[12] = Per-Protocol Set, Day 15, 5 hr postdose
[13] = Per-Protocol Set, Day 15, 8 hr postdose
[14] = Per-Protocol Set, Day 15, predose

Compound: COC[C@@]1(O)CC[C@H]2[C@@H](CC[C@@H]3[C@@H]2CC[C@]2(C)[C@@H](C(=O)Cn4nnc(C)n4)CC[C@@H]32)C1 [Compound 1]
- LSMean (SE) CFB in TETRAS performance subscale part 4 upper limb tremor total score [1]: −1.06
- LSMean Difference (CI) vs placebo in CFB in TETRAS performance subscale part 4 upper limb tremor total score [1]: 0.45
- Mean (SD) % CFB in TETRAS performance subscale part 4 upper limb tremor total score [1]: −7.76%
- % CFB in Tremor Amplitude [1]: −18.40%
- Frequency of % CFB in tremor amplitude category 15-<30%, number of participants [2]: 6
- Frequency of % CFB in tremor amplitude category 15-<30%, percent of participants [2]: (28.6)
- Frequency of % CFB in tremor amplitude category 30-<50%, number of participants [2]: 2
- Frequency of % CFB in tremor amplitude category 30-<50%, percent of participants [2]: (9.5)
- Frequency of % CFB in tremor amplitude category 50-<75%, number of participants [2]: 2
- Frequency of % CFB in tremor amplitude category 50-<75%, percent of participants [2]: (9.5)
- Frequency of % CFB in tremor amplitude category <15%, number of participants [2]: 11
- Frequency of % CFB in tremor amplitude category <15%, percent of participants [2]: (52.4)
- Frequency of % CFB in tremor amplitude category >75%, number of participants [2]: 0
- Mean (SD) % CFB in TETRAS performance subscale part 4 upper limb tremor total score [2]: −20.47%
- % CFB in Tremor Amplitude [2]: −41.00%
- LSMean difference vs placebo in change from baseline in TETRAS performance subscale part 4 upper limb tremor total score [3]: −1.33
- Model-based LSMean (SE) change from baseline in TETRAS performance subscale part 4 upper limb tremor total score [3]: −1.99 (0.340)
- LSMean difference vs placebo in change from baseline in TETRAS performance subscale part 4 upper limb tremor total score [4]: −1.60
- Model-based LSMean (SE) change from baseline in TETRAS performance subscale part 4 upper limb tremor total score [4]: −3.12 (0.449)
- LSMean difference vs placebo in change from baseline in TETRAS performance subscale part 4 upper limb tremor total score [5]: −1.38
- Model-based LSMean (SE) change from baseline in TETRAS performance subscale part 4 upper limb tremor total score [5]: −2.84 (0.445)
- LSMean difference vs placebo in change from baseline in TETRAS performance subscale part 4 upper limb tremor total score [6]: −1.37
- Model-based LSMean (SE) change from baseline in TETRAS performance subscale part 4 upper limb tremor total score [6]: −2.15 (0.371)
- LSMean difference vs placebo in change from baseline in TETRAS performance subscale part 4 upper limb tremor total score [7]: −1.48
- Model-based LSMean (SE) change from baseline in TETRAS performance subscale part 4 upper limb tremor total score [7]: −2.56 (0.383)
- LSMean difference vs placebo in change from baseline in TETRAS performance subscale part 4 upper limb tremor total score (Baseline part 4 upper limb total score ≥ 12, Day 29): −1.70
- LSMean difference vs placebo in change from baseline in TETRAS performance subscale part 4 upper limb tremor total score [8]: 0.22
- Model-based LSMean (SE) change from baseline in TETRAS performance subscale part 4 upper limb tremor total score [8]: −1.59 (0.475)
- Percent reduction from baseline in tremor amplitude (Full Analysis Set): 36
- LSMean difference vs placebo in change from baseline in TETRAS performance subscale part 4 upper limb tremor total score (Full Analysis Set, Day 8): −0.81
- Model-based LSMean (SE) change from baseline in TETRAS performance subscale part 4 upper limb tremor total score (Full Analysis Set, Day 8): −1.67 (0.287)
- LSMean difference vs placebo in change from baseline in TETRAS performance subscale part 4 upper limb tremor total score [9]: −0.40
- Model-based LSMean (SE) change from baseline in TETRAS performance subscale part 4 upper limb tremor total score [9]: −2.64 (0.452)
- LSMean difference vs placebo in change from baseline in TETRAS performance subscale part 4 upper limb tremor total score [10]: −0.27
- Model-based LSMean (SE) change from baseline in TETRAS performance subscale part 4 upper limb tremor total score [10]: −2.36 (0.441)
- LSMean difference vs placebo in change from baseline in TETRAS performance subscale part 4 upper limb tremor total score [11]: −0.48
- Model-based LSMean (SE) change from baseline in TETRAS performance subscale part 4 upper limb tremor total score [11]: −1.78 (0.344)
- LSMean difference vs placebo in change from baseline in TETRAS performance subscale part 4 upper limb tremor total score (Full Analysis Set, Day 22): −0.77
- Model-based LSMean (SE) change from baseline in TETRAS performance subscale part 4 upper limb tremor total score (Full Analysis Set, Day 22): −2.10 (0.360)
- Frequency of % CFB in tremor amplitude category 15-<30%, number of participants (Full Analysis Set, Day 29): 5
- Frequency of % CFB in tremor amplitude category 15-<30%, percent of participants (Full Analysis Set, Day 29): (23.8)
- Frequency of % CFB in tremor amplitude category 30-<50%, number of participants (Full Analysis Set, Day 29): 6
- Frequency of % CFB in tremor amplitude category 30-<50%, percent of participants (Full Analysis Set, Day 29): (28.6)
- Frequency of % CFB in tremor amplitude category 50-<75%, number of participants (Full Analysis Set, Day 29): 3
- Frequency of % CFB in tremor amplitude category 50-<75%, percent of participants (Full Analysis Set, Day 29): (14.3)
- Frequency of % CFB in tremor amplitude category <15%, number of participants (Full Analysis Set, Day 29): 5
- Frequency of % CFB in tremor amplitude category <15%, percent of participants (Full Analysis Set, Day 29): (23.8)
- Frequency of % CFB in tremor amplitude category >75%, number of participants (Full Analysis Set, Day 29): 2
- Frequency of % CFB in tremor amplitude category >75%, percent of participants (Full Analysis Set, Day 29): (9.5)
- LSMean difference vs placebo in change from baseline in TETRAS performance subscale part 4 upper limb tremor total score (Full Analysis Set, Day 29): −1.07 (−2.14, −0.00)
- Mean (SD) % CFB in TETRAS performance subscale part 4 upper limb tremor total score (Full Analysis Set, Day 29): −18.05%
- Model-based LSMean (SE) change from baseline in TETRAS performance subscale part 4 upper limb tremor total score (Full Analysis Set, Day 29): −2.31 (0.401)
- % CFB in Tremor Amplitude (Full Analysis Set, Day 29): −35.80%
- LSMean difference vs placebo in change from baseline in TETRAS performance subscale part 4 upper limb tremor total score (Full Analysis Set, Day 29, listed as Cmpd 1): −1.07
- LSMean difference vs placebo in change from baseline in TETRAS performance subscale part 4 upper limb tremor total score (Full Analysis Set, Day 42): 0.62
- Model-based LSMean (SE) change from baseline in TETRAS performance subscale part 4 upper limb tremor total score (Full Analysis Set, Day 42): −1.23 (0.407)
- LSMean difference vs placebo in change from baseline in TETRAS performance subscale part 4 upper limb tremor total score (Per-Protocol Set, Day 8): −0.97
- Model-based LSMean (SE) change from baseline in TETRAS performance subscale part 4 upper limb tremor total score (Per-Protocol Set, Day 8): −1.78 (0.319)
- LSMean difference vs placebo in change from baseline in TETRAS performance subscale part 4 upper limb tremor total score [12]: −0.71
- Model-based LSMean (SE) change from baseline in TETRAS performance subscale part 4 upper limb tremor total score [12]: −2.83 (0.500)
- LSMean difference vs placebo in change from baseline in TETRAS performance subscale part 4 upper limb tremor total score [13]: −0.70
- Model-based LSMean (SE) change from baseline in TETRAS performance subscale part 4 upper limb tremor total score [13]: −2.66 (0.500)
- LSMean difference vs placebo in change from baseline in TETRAS performance subscale part 4 upper limb tremor total score [14]: −0.83
- Model-based LSMean (SE) change from baseline in TETRAS performance subscale part 4 upper limb tremor total score [14]: −1.94 (0.367)
- LSMean difference vs placebo in change from baseline in TETRAS performance subscale part 4 upper limb tremor total score (Per-Protocol Set, Day 22): −1.15
- Model-based LSMean (SE) change from baseline in TETRAS performance subscale part 4 upper limb tremor total score (Per-Protocol Set, Day 22): −2.38 (0.408)
- LSMean difference vs placebo in change from baseline in TETRAS performance subscale part 4 upper limb tremor total score (Per-Protocol Set, Day 29): −1.37
- Model-based LSMean (SE) change from baseline in TETRAS performance subscale part 4 upper limb tremor total score (Per-Protocol Set, Day 29): −2.50 (0.452)
- LSMean difference vs placebo in change from baseline in TETRAS performance subscale part 4 upper limb tremor total score (Per-Protocol Set, Day 42): 0.36
- Model-based LSMean (SE) change from baseline in TETRAS performance subscale part 4 upper limb tremor total score (Per-Protocol Set, Day 42): −1.48 (0.474)
- Percent reduction from baseline in tremor amplitude (subjects with baseline TETRAS performance subscale part 4 upper limb tremor total score ≥12): 41%

Reference: patent US20240238314A1, “TREATMENT OF ESSENTIAL TREMOR” (Sage Therapeutics, Inc., priority 2021, published 2024)
